Legend:
iNOS = iNOS (Mus musculus, UniProt P29477); experiment: NOS inhibition, hemoglobin capture assay; assay type: biochemical; conditions: read-out: Ki iNOS; apparent Ki; recombinant enzyme; 10 µM L-arginine
blood pressure = conditions: cited from earlier work

Structure (SMILES) | Ki (iNOS) [µM] | effect on blood pressure (blood pressure)
N=C(NCCC[C@H](N)C(=O)O)N[N+](=O)[O-] [L-NNA, L-N^ω-Nitroarginine] | 4.55 | 
COC(=O)[C@@H](N)CCCNC(=N)N[N+](=O)[O-] [L-N^ω-nitroarginine methyl ester] |  | sharp increases in blood pressure
